Test results reported in patent US20200109394A1, “COMPOSITIONS AND METHODS FOR ISOLATING CIRCULATING CELLS” (Prescient Pharma LLC, priority 2018, published 2020).

Assays:
HT29 cells [1] = test: Depletion of HT29 cells loaded with Fe2DG by external magnet in McCoy's 5A medium (microscopy); assay type: cell-based, human; details: Fe2DG 1 mg per 1 ml in McCoy's 5A medium with 10% FBS, RT 1 hour, 30 min inside round magnet vs outside, Hematoxylin stain
Description: In this fourth Example, the effect of external magnet on suspension HT29 cells (human adenocarcinoma) in complete McCoy's 5A medium after adding of Fe2DG was studied. Suspension of HT29 cells (ATCC HTB-38) in McCoy's 5A medium with 10% of FBS was count by Countess automated cell counter (Invitrogen). Results: live cells 3.6×10^6/ml, dead cells 1.6×10^5/ml, Viability 96% Fe2DG was added to the cell suspension in final concentration 1 mg per 1 ml. Cells then were incubated in RT for 1 hour. Then the suspension was divided on two portions. Both portions were placed inside of plastic tube (10 cm long, 3 mm in diameter). One tube was placed inside of the round magnet, another tube was outside of the magnet. After incubation for 30 min; contains of both tubes were gently pushed out, and placed on the glass slide, and stained by Hematoxylin. Slides were examined under light microscope Olympus BX51 and pictures were taken using Olympus DP73 digital camera.

A375-eGFP-puro cells = test: Enrichment of A375-eGFP-puro cells incubated with Fe2DG by external magnet from mixture with whole human blood (FACS); assay type: cell-based; details: Fe2DG 1 mg per 1 ml in human whole blood, RT 2 hours, 30 min in magnet; fraction #2 (tube out of magnet) vs fraction #1, FACS
Description: In this second Example, the effect of external magnet on suspension A375-eGFP-puro cells (human melanoma) in whole blood after adding of Fe2DG was studied.
A375-eGFP-puro cells (Imanis Life Science) has enhanced Green Fluorescent Protein as a reporter. And can be detected by fluorescent microscope of FACS because of green fluorescence.
For routine maintenance, A375-eGFP-puro cells were grown in DMEM complete growth medium (Cat. No. 30-2002; ATCC, Manassas, Va.) supplemented by 10% FBS, Penicillin/Streptomycin and 1 ug/ml Puromycin in an incubator at 37° C. and 5% CO2. Cells were passaged every 4 days. The cells were detached from flasks using trypsin and re-suspended in 5 mL of fresh DMEM medium.
500 ul of A375-eGFP-puro cells suspension was added to 4 ml of fresh human volunteer whole blood. Fe2DG in final concentration 1 mg per 1 ml was added. The blood then was incubated in RT for 2 hours. Then the blood was placed inside of plastic tube (10 cm long, 3 mm outside diameter). The tube was placed inside of the round magnet. After incubation for 30 min; 0.1 ml of the blood was gently pushed through the tube and through the magnet. […] After centrifugation for 5 min 1000 rpm and removing of supernatant, the pellet was resuspended in 0.5 ml of PBS and introduced for analysis by BD fluorescence-activated cell sorter (FACS) Aria III.

WBC = test: Effect on WBC of magnetic trapping in the HT29/whole blood mixture with Fe2DG (FACS); assay type: cell-based; details: Fe2DG 1 mg per 1 ml in human whole blood, RT 2 hours, 30 min inside round magnet
Description: 500 ul of HT29 suspension was added to 4 ml of fresh human volunteer whole blood. Fe2DG in final concentration 1 mg per 1 ml was added. The blood then was incubated in RT for 2 hours. Then the blood was divided on two portions. Both portions were placed inside of plastic tube (10 cm long, 3 mm outside diameter). One tube was placed inside of the round magnet, another tube was outside of the magnet. After incubation for 30 min; contents of both tubes were gently pushed out. RBC were lysed by adding 4 volumes of distillate water for 30 sec. Then PBS was added to restore osmolarity. After centrifugation for 5 min 1000 rpm and removing of supernatant, the pellet was resuspended in 0.5 ml of PBS and introduced for analysis by BD FACS Aria III

HT29 cells [2] = test: Depletion of Fe2DG-loaded HT29 cells by external magnet from mixture with whole blood (FACS); assay type: cell-based; details: Fe2DG 1 mg per 1 ml in human whole blood, RT 2 hours, 30 min inside round magnet vs outside
Description: In this Example, the effect of external magnet on suspension HT29 cells (human adenocarcinoma) in whole blood after adding of Fe2DG was studied. For routine maintenance, HT29 cells (ATCC HTB-38) were grown in McCoy's 5A complete growth medium (Cat. No. 30-2007; ATCC, Manassas, Va.) supplemented by 10% FBS, and 1× Penicillin/Streptomycin in an incubator at 37° C. and 5% CO2. Cells were passaged every 4 days. The cells were detached from flasks using trypsin and re-suspended in 5 mL of fresh McCoy's 5A medium. Suspension of HT29 cells (ATCC HTB-38) was count by Countess automated cell counter (Invitrogen). Results: total 1.5×10^6/ml, live cells 1.4×10^6/ml, dead cells 1.3×10^5/ml, Viability 91% Cells were stained by BCECF AM (Life technologies Ref # B1150) intracellular fluorescent dye, according manufacturer instructions. 1 mg of BCECF AM (Invitrogen) was dissolved in 1 ml of DMSO and 10 aliquots were prepared. 1 aliquot was dissolved in 10 ml of Hank's Balanced Salt Solution to make working concentration (0.016 mM). Working solution of BCECF AM was added to HT29 cells suspension (5 ml of BCECF AM 5 ml of HT29 cells suspension in medium) and incubated in room temperature for 30 minutes in the dark. 500 ul of HT29 suspension was added to 4 ml of fresh human volunteer whole blood. Fe2DG in final concentration 1 mg per 1 ml was added. The blood then was incubated in RT for 2 hours. […]

HT29 cells [3] = test: Prussian blue iron staining of HT29 cells after incubation in medium with Fe2DG; assay type: cell-based, human; details: Fe2DG 1 mg/ml in DMEM no glucose with 10% FBS, two hours
Description: In this third Example, the differential ability of normal vs cancer cells (higher for malignant cells) to accumulate Iron (Fe) from Fe2DG added to medium was studied. For routine maintenance, HT29 cells (ATCC HTB-38) were grown in McCoy's 5 A complete growth medium (Cat. No. 30-2007; ATCC, Manassas, Va.) supplemented by 10% FBS, and 1× Penicillin/Streptomycin in an incubator at 37° C. and 5% CO2. Cells were passaged every 4 days. For Fe2DG treatments, HT29 cells (ATCC HTB-38) cells were grown in 25 cm^2 Nunclon Delta Surface flasks (Cat. No. 136196; Thermo Fisher Scientific, Waltham, Mass.) with McCoy's 5A complete medium and kept in an incubator at 37° C. and 5% CO2 until close to 75% confluence was reached. Then medium for both cell types was replaced by DMEM no glucose (ThermoFisher Cat. No. 11966025) supplemented by 10% FBS and Fe2DG 1 mg/ml for two hours. Then medium was removed and both flasks were stained by Prussian blue staining kit “Advanced testing Iron stain” (ThermoFisher Cat. No. 87006). Cells in the flasks were fixed by 10% Formalin, then rinsed by deionized water. Then the cells were stained by freshly prepared Working Iron Solution 30 minutes at room temperature. Then the cells were rinsed by deionized water and counterstain by Nuclear Red Satin Solution for 30 seconds. […]

[4] = test system: CRL-1790 cells (human fibroblasts); test: Prussian blue iron staining of CRL-1790 cells after incubation in medium with Fe2DG; assay type: cell-based; details: Fe2DG 1 mg/ml in DMEM no glucose with 10% FBS, two hours
Description: In this third Example, the differential ability of normal vs cancer cells (higher for malignant cells) to accumulate Iron (Fe) from Fe2DG added to medium was studied. For routine maintenance, CCD 841 CoN human colon fibroblast cells (CRL-1790; ATCC, Manassas, Va.) were grown in EMEM complete growth medium (Cat. No. 30-2003; ATCC, Manassas, Va.) supplemented by 10% FBS, and 1× Penicillin/Streptomycin in an incubator at 37° C. and 5% CO2. Cells were passaged every 4 days. For Fe2DG treatments, CCD 841 CoN cells were grown in 25 cm^2 Nunclon Delta Surface flasks (Cat. No. 136196; Thermo Fisher Scientific, Waltham, Mass.) with EMEM complete medium and kept in an incubator at 37° C. and 5% CO2 until close to 75% confluence was reached. Then medium for both cell types was replaced by DMEM no glucose (ThermoFisher Cat. No. 11966025) supplemented by 10% FBS and Fe2DG 1 mg/ml for two hours. Then medium was removed and both flasks were stained by Prussian blue staining kit “Advanced testing Iron stain” (ThermoFisher Cat. No. 87006). Cells in the flasks were fixed by 10% Formalin, then rinsed by deionized water. Then the cells were stained by freshly prepared Working Iron Solution 30 minutes at room temperature. Then the cells were rinsed by deionized water and counterstain by Nuclear Red Satin Solution for 30 seconds. […]

Q: Which “depletion of HT29 cells in the sample pushed out of the tube inside the magnet” value (HT29 cells [1]) does the source give for Fe (III)-2 deoxy D glucose [Fe2DG] here?
A: Its value is “significant depletion”.

Q: And the “enrichment of A375-eGFP-puro cells in the second fraction (2nd)” value (A375-eGFP-puro cells)?
A: Its value is 18.5 times.

Q: What about the “specificity of magnetic trapping: effect on WBC” value (WBC) of the same substance?
A: The value was “without affect WBC”.

Q: And the “depletion of BCECF AM stained HT29 cells (gate 4) in the sample pushed out of the tube inside the magnet” value (HT29 cells [2])?
A: Its value is “significant depletion”.

Q: What about the “accumulation of iron (Prussian blue stain) in cancer cells (HT29)” value (HT29 cells [3]) of the same substance?
A: Its value is “significant accumulation of iron”.

Q: And the “accumulation of iron (Prussian blue stain) in normal human fibroblasts (CRL-1790)” value [4]?
A: Its value is “practically no accumulation of Iron”.
